Assay results published in PMC6459484, “Synthetic surfactin analogues have improved anti-PEDV properties” (PLoS ONE, 2019).
Values after ≈ are worked out from the molar mass of the structure shown. “Also recorded” adds a separate entry of the source. Square brackets hold non-standard residues; d marks the D form. Peptide text beside a SMILES is read from it. * marks the point of attachment. X1 = CCCCCCCc1ccc(-c2ccc(C(=O)*)cc2)cc1; Palmitoyl = CCCCCCCCCCCCCCCC(=O)*

How the values were obtained:
[1] = Critical micelle concentration by surface tension (ring method); type: physicochemical; details: samples stood 30 min at 22 °C, intersection of two linear regression lines
Experimental: Surface tensions were measured using the ring method. Samples were freshly prepared in a testing flask and allowed to stand for 30 minutes at 22 °C. Surface tension measurements were made using a surface tensiometer (HLD-LST-II, HENLIDA Co., Ltd, China). Linear regressions of the drop and the flat area were performed separately for the surface tension-concentration curve. The concentration at the intersection of the two lines is the critical micelle concentration (CMC).
The CMC was calculated by measuring the surface tension of each SLP over a range of concentrations. […] Linear regressions were performed independently using the data on the descending part of the curve below the CMC and the equilibrium part above the CMC. The intersection of the linear regression lines corresponds to the CMC (Table 3).
Fig 4 Critical micelle concentrations of the SLPs. CMCs were determined for SDS, surfactin, and SLPs by surface tension. The intersection of the two linear regression lines corresponds to the CMC value, (shown by the dotted lines).

porcine RBCs = type: cell-based; details: for CC50 (50% cytotoxicity concentration, hemolysis): red cells of porcine, 1 h
Experimental: Hemolytic activity was measured according to the methods described in Jingdan, with some modifications. Briefly, serial dilutions of SLPs were added to 200 uL of a 1% suspension of porcine RBCs in PBS, followed by incubation for 1 h at 37 °C. Cells were centrifuged at 1000 g for 10 min, then 100 uL of each supernatant was transferred to wells of a 96-well plate. The optical density at 540 nm was measured using a microplate reader (Infinite 200 PRO, Tecan Group Ltd., Switzerland) and % hemolysis was calculated using the formula: Hemolysis(%)=ODS-ODB/ODP-ODB×100% where ODS, ODB, and ODP represent the optical density of the SLP-treated samples, negative control and positive control, respectively. 1% Triton X-100 was used for the positive control. Each sample was run in triplicate.
Fig 3 Hemolytic activity of lipopeptides. (A) The indicated concentration of SLPs were added to a 1% porcine RBC suspension in PBS, followed by incubation for 1 h at 37 °C and centrifugation. Pictures were taken after collecting a portion of the supernatant for quantification of hemolysis. (B) Hemolytic curve. Hemolysis (measured at OD540) is shown as a function of SLP concentration. 100% represents the OD obtained using 0.1% Triton X-100-treated red blood cells.

PEDV CV777 = test: Plaque reduction assay (anti-PEDV activity); type: cell-based, Porcine epidemic diarrhea virus; details: for Antiviral potency relative to SLP3: anti-PEDV plaque reduction, compared with SLP3; for Anti-PEDV potency compared with surfactin: plaque reduction assay, result in words
Experimental: Cercopithecus aethiops kidney epithelial cells (Vero, ATCC, CCL-81) were cultured in high glucose DMEM (Gibco, US), supplemented with 10% fetal bovine serum (FBS, GIBCO), at 37 °C in a 5% CO2 humidified atmosphere. Cells were routinely seeded at a density of 2×10^5 /mL in plastic tissue culture flasks (25 cm^2 flasks, Corning, USA) and passaged every 3–4 days. PEDV CV777 was provided by the Jiangsu Academy of Agricultural Sciences (JAAS).
Vero cells were seeded at 2 × 10^5 cells/well in 24-well tissue culture plates and incubated 18–24 h at 37 °C until approximately 95% confluency was reached. 100 PFU of PEDV mixed with an equal volume of SLP in DMEM or DMEM alone were incubated 10 minutes at 37 °C, then added into the wells of the Vero cells and incubated 30 minutes at 4 °C. Cells were washed 3 times with DMEM then overlaid with DMEM/1% agar and incubated 72 hours at 37 °C. The cells were fixed with 4% formaldehyde, then stained with 0.1% crystal violet after the agar overlay was removed. The data are representative of 3 biological replicates and each plaque assay was performed in triplicate and values are expressed as means ± the standard deviation. Curve fitting and EC50 were calculated with GraphPad Prism 6 using the log[inhibitor] vs. response equation.
The SLPs were tested for anti-PEDV activity using a plaque reduction assay. Serial dilutions of SLPs were incubated with an equal volume of PEDV then aliquoted onto precooled cells in 12-well plates. After the virus has adsorbed to the cells at 4 °C, SLPs were washed away. The adsorbed virus particles were then counted by plaque forming assays (Fig 2A). The results were fitted to a sigmoid-curve and plotted Fig 2B. All SLPs have potent anti-PEDV effects above 50 μg/ml, but differences in their anti-PEDV effect.
Fig 2 Anti-PEDV activities of lipopeptides. (A) PEDV was incubated with series concentrations of SLPs for 10 minutes at 37 °C. After washing cells of unadsorbed virus, the remaining infectious particles was detected by plaque assay. (B) Anti-PEDV activity (% remaining PFU) plotted as a function of lipopeptide concentration. The results of three independent experiments are shown as means ± standard deviation. 100% represents plaque counts in the control (no lipopeptide) sample.

[2] = 100 PFU PEDV pre-incubated with lipopeptide 10 min at 37 °C, adsorbed to Vero cells 30 min at 4 °C, washed, agar overlay 72 h, 3 biological replicates each in triplicate, mean ± SD, log[inhibitor] vs. response fit

SMILES: CCCCCCCCCCCCOS(=O)(=O)[O-].[Na+] [SDS, reference compound]
- CMC [1]: 296 µg/mL

SMILES: CCCCCCCCCCCCCCCC(=O)N[C@@H](CCC(=O)O)C(=O)N[C@H](C(=O)N[C@H](CC(C)C)C(=O)N[C@H](CC(C)C)C(N)=O)C(C)C [SLP4] (Palmitoyl-EV[dL][dL]-NH2)
- CC50 (50% cytotoxicity concentration, hemolysis) (porcine RBCs): 12.9 ± 0.2 µg/mL (≈ 18.2 µM)
- EC50 (PEDV CV777; 72 h): 5.4 ± 0.4 µg/mL (≈ 7.61 µM)
- Antiviral potency relative to SLP3 (PEDV CV777): about 3 fold
- Anti-PEDV potency compared with surfactin (PEDV CV777): higher potency than surfactin
- CMC [1]: 10.6 µg/mL

SMILES: CCCCCCCCCCCCCCCC(=O)N[C@@H](CCCCN)C(=O)N[C@H](C(=O)N[C@H](CC(C)C)C(=O)N[C@@H](CCCCN)C(=O)N[C@H](CC(C)C)C(N)=O)C(C)C [SLP6] (Palmitoyl-KV[dL]K[dL]-NH2)
- Hemolytic activity, result in words (porcine RBCs): strongest hemolytic activity
- CC50 (50% cytotoxicity concentration, hemolysis) (porcine RBCs): 12.6 ± 0.4 µg/mL (≈ 15 µM)
- EC50 (PEDV CV777; 72 h): 6.1 ± 0.3 µg/mL (≈ 7.29 µM)
- Anti-PEDV potency compared with surfactin (PEDV CV777): higher potency than surfactin
- CMC [1]: 22.4 µg/mL

SMILES: CCCCCCCCCCCCCCCC(=O)N[C@@H](CCC(=O)O)C(=O)N[C@H](C(=O)N[C@@H](CC(C)C)C(=O)N[C@@H](CC(=O)O)C(=O)N[C@@H](CC(C)C)C(N)=O)C(C)C [SLP7] (Palmitoyl-EVLDL-NH2)
- CC50 (50% cytotoxicity concentration, hemolysis) (porcine RBCs): 274.1 ± 21.0 µg/mL (≈ 332 µM)
- EC50 (PEDV CV777; [2]): 14.0 ± 0.6 µg/mL (≈ 17 µM)
- CMC [1]: 17.1 µg/mL

SMILES: CCCCCCCCCCCCCCCC(=O)N[C@@H](CCC(=O)O)C(=O)N[C@H](C(=O)N[C@H](CC(C)C)C(=O)N[C@H](CC(C)C)C(=O)N[C@@H](CC(=O)O)C(N)=O)C(C)C [SLP8] (Palmitoyl-EV[dL][dL]D-NH2)
- Hemolytic activity, result in words (porcine RBCs): low hemolytic activity
- CC50 (50% cytotoxicity concentration, hemolysis) (porcine RBCs): 217.5 ± 18.9 µg/mL (≈ 264 µM)
- EC50 (PEDV CV777; 72 h): 2.6 ± 0.2 µg/mL (≈ 3.15 µM)
- Antiviral potency relative to SLP3 (PEDV CV777): 6.5 fold
- Anti-PEDV potency compared with surfactin (PEDV CV777): higher potency than surfactin; also recorded: exceeded
- CMC [1]: 20.2 µg/mL

SMILES: CCCCCCCCCCCCCCCC(=O)N[C@@H](CCC(=O)O)C(=O)N[C@@H](CC(=O)O)C(=O)N[C@H](C(=O)N[C@H](CC(C)C)C(=O)N[C@H](CC(C)C)C(N)=O)C(C)C [SLP9] (Palmitoyl-EDV[dL][dL]-NH2)
- CC50 (50% cytotoxicity concentration, hemolysis) (porcine RBCs): 52.2 ± 2.0 µg/mL (≈ 63.3 µM)
- EC50 (PEDV CV777; [2]): 12.8 ± 0.5 µg/mL (≈ 15.5 µM)
- CMC [1]: 9.4 µg/mL

SMILES: CCCCCCCc1ccc(-c2ccc(C(=O)N[C@@H](CCC(=O)O)C(=O)N[C@H](C(=O)N[C@H](CC(C)C)C(=O)N[C@@H](CC(=O)O)C(=O)N[C@H](CC(C)C)C(N)=O)C(C)C)cc2)cc1 [SLP10] (X1-EV[dL]D[dL]-NH2)
- CC50 (50% cytotoxicity concentration, hemolysis) (porcine RBCs): 82.8 ± 3.4 µg/mL (≈ 95.7 µM)
- EC50 (PEDV CV777; [2]): 10.6 ± 0.5 µg/mL (≈ 12.3 µM)
